Here are results for 30 compounds from patent publication US9120804B2, “8-substituted 2-amino-[1,2,4] triazolo [1, 5-A] pyrazines as Syk tryrosine kinase inhibitors and GCN2 serin kinase inhibitors” (Merck Patent GmbH, priority 2012, dated 2015).

The target of one assay is T1, SYK (Homo sapiens, UniProt P43405).
T1 construct: 2.5 nM SYK, 400 nM Biotin-Aha-Aha-KEDPDYEWPSAKK
The assay is described as follows: SYK flash plate assay (enzyme assay). The class given is biochemical. The essentials:
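Radiometric Flashplate format: biotinylated peptide substrate (400 nM) and 33P-labelled ATP (10 μM) react with 2.5 nM enzyme for 1 hour at 30 °C in Hepes buffer, pH 7.5. After EDTA quench and washing, counts are taken; staurosporine defines non-specific signal, and IC50 values are derived.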

Another assay concerns the target GCN2 (Homo sapiens, UniProt Q9P2K8). The assay is described as follows: GCN2 enzyme assay. The class given is biochemical.

Molecules are shown by their SMILES.

Sequence of GCN2 (Q9P2K8 whole entry): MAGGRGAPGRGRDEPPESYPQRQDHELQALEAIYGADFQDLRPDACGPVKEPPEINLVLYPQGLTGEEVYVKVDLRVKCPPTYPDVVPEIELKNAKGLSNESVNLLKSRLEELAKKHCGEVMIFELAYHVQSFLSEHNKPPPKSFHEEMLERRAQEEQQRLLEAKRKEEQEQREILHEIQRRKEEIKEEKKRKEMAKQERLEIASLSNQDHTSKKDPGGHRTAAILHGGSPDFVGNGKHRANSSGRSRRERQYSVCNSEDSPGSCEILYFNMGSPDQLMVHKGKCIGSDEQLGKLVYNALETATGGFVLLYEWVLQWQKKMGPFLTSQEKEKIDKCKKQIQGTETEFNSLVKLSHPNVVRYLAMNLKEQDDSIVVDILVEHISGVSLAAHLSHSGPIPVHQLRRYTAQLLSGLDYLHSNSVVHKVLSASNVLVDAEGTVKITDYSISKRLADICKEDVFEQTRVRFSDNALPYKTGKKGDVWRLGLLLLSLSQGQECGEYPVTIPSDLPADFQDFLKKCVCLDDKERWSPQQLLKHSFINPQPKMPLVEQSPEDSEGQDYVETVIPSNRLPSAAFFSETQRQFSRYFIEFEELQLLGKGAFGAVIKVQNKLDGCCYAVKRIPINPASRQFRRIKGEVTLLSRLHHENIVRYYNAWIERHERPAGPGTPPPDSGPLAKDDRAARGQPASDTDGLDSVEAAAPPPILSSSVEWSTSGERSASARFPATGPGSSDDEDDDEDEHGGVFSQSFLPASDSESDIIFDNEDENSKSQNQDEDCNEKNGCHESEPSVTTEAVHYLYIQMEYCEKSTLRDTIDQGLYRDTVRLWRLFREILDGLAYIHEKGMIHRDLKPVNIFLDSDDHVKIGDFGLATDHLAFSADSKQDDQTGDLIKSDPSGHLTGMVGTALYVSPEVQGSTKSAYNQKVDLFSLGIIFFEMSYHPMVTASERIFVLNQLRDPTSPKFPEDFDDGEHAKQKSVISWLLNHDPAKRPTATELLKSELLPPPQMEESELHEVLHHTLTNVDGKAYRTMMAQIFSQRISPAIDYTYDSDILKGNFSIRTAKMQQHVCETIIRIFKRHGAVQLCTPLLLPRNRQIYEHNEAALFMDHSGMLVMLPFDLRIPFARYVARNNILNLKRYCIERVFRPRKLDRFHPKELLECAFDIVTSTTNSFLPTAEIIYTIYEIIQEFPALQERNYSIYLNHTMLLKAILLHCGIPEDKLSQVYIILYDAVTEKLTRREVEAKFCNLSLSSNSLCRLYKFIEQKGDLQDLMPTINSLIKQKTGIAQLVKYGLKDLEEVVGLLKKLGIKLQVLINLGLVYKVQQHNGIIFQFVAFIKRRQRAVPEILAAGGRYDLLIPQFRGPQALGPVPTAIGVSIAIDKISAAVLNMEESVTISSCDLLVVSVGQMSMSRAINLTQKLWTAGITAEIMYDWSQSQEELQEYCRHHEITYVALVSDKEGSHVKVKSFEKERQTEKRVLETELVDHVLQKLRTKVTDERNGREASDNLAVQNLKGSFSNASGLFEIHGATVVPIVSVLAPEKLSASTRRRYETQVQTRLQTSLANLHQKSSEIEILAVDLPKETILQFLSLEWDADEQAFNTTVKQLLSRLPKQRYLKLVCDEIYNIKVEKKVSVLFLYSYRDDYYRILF

On to `CN1c2ccc(Nc3nc4c(-c5cnn(C)c5)nccn4n3)cc2CS1(=O)=O` [C117, (1-methyl-2,2-dioxo-2,3-dihydro-1H-2I6-benzo[c]isothiazol-5-yl)-[8-(1-methyl-1H-pyrazol-4-yl)-[1,2,4]triazolo[1,5-a]pyrazin-2-yl]-amine], for which the IC50 was in the range of 0.1 to 0.3 µM at SYK and 0.3 to 3 µM against GCN2.
For `CC1(C)C(=O)Nc2cc(Nc3nc4c(N5CC[C@H](O)C5)nccn4n3)ccc21` [C83, 6-[8-((S)-3-hydroxy-pyrrolidin-1-yl)-[1,2,4]triazolo[1,5-a]pyrazin-2-ylamino]-3,3-dimethyl-1,3-dihydro-indol-2-one] the same measures were 0.1 to 0.3 µM and 3 to 50 µM.
With `Cn1cc(-c2nccn3nc(Nc4ccc5nnn(C)c5c4)nc23)cn1` [C30, (3-Methyl-3H-benzotriazol-5-yl)-[8-(1-methyl-1H-pyrazol-4-yl)-[1,2,4]triazolo[1,5-a]pyrazin-2-yl]-amine], the IC50 on SYK and against GCN2 was 0.3 to 3 µM in each case.
As for `CC1(C)C(=O)Nc2cc(Nc3nc4c(N5CCc6[nH]cnc6C5)nccn4n3)ccc21` [C103, 3,3-dimethyl-6-[8-(1,4,6,7-tetrahydro-imidazo[4,5-c]pyridin-5-yl)-[1,2,4]triazolo[1,5-a]pyrazin-2-ylamino]-1,3-dihydro-indol-2-one], the IC50 against SYK is < 0.1 µM; against GCN2, 3 to 50 µM.
The matching figures for `Cn1cc(-c2nccn3nc(Nc4ccc([S+](C)[O-])cc4)nc23)cn1` (stereo not drawn) [C32, (4-Methanesulfinyl-phenyl)-[8-(1-methyl-1H-pyrazol-4-yl)-[1,2,4]triazolo[1,5-a]pyrazin-2-yl]-amine]: 0.3 to 3 µM and 3 to 50 µM.
In the case of `CC1(C)C(=O)Nc2cc(Nc3nc4c(N5CCC(N6CCNC6=O)CC5)nccn4n3)ccc21` [C104, 3,3-dimethyl-6-{8-[4-(2-oxo-imidazolidin-1-yl)-piperidin-1-yl]-[1,2,4]triazolo[1,5-a]pyrazin-2-ylamino}-1,3-dihydro-indol-2-one], the IC50 is 0.3 to 3 µM against SYK and 3 to 50 µM at GCN2.
For the compound `Cn1cc(-c2nccn3nc(Nc4cccc(S(N)(=O)=O)c4)nc23)cn1` [C14, 3-[8-(1-Methyl-1H-pyrazol-4-yl)-[1,2,4]triazolo[1,5-a]pyrazin-2-ylamino]-benzenesulfonamide], the figures for the IC50 on SYK and on GCN2 were 3 to 50 µM and 0.3 to 3 µM, respectively.
As to `CC(C)C(O)c1n[nH]c2cc(Nc3nc4c(-c5cnn(C)c5)nccn4n3)ccc12` (stereo not drawn) [C142, 2-methyl-1-{6-[8-(1-methyl-1H-pyrazol-4-yl)-[1,2,4]triazolo[1,5-a]pyrazin-2-ylamino]-1H-indazol-3-yl}-propan-1-ol], the IC50 lay within 0.1 to 0.3 µM against SYK and 0.3 to 3 µM against GCN2.
As for `Cn1cc(-c2nccn3nc(Nc4ccc5cnn(C)c5c4)nc23)cn1` [C21, (1-Methyl-1H-indazol-6-yl)-[8-(1-methyl-1H-pyrazol-4-yl)-[1,2,4]triazolo[1,5-a]pyrazin-2-yl]-amine], the IC50 at SYK was 0.3 to 3 µM; at GCN2 it was 3 to 50 µM.
For `COc1cc(Nc2nc3c(N4CCC(O)(CCO)CC4)nccn3n2)cc(OC)c1` [C49, 1-[2-(3,5-dimethoxy-phenylamino)-[1,2,4]triazolo[1,5-a]pyrazin-8-yl]-4-(2-hydroxy-ethyl)-piperidin-4-ol], the values for the IC50 on SYK and on GCN2 were 0.3 to 3 µM and 3 to 50 µM, respectively.
For `COc1cc(Nc2nc3c(N4CCN(C(=O)CO)CC4)nccn3n2)cc(OC)c1` [C56, 1-{4-[2-(3,5-dimethoxy-phenylamino)-[1,2,4]triazolo[1,5-a]pyrazin-8-yl]-piperazin-1-yl}-2-hydroxy-ethanone] the same measures were 0.3 to 3 µM and 3 to 50 µM.
For `Cn1cc(-c2nccn3nc(Nc4ccc(C#N)c(O)c4)nc23)cn1` [C36, 2-Hydroxy-4-[8-(1-methyl-1H-pyrazol-4-yl)-[1,2,4]triazolo[1,5-a]pyrazin-2-ylamino]-benzonitrile] the same measures were 0.3 to 3 µM and 0.3 to 3 µM.
For `CC1(C)C(=O)Nc2cc(Nc3nc4c(N5CC6(COC6)C5)nccn4n3)ccc21` [C91, 3,3-dimethyl-6-[8-(2-oxa-6-aza-spiro[3.3]hept-6-yl)-[1,2,4]triazolo[1,5-a]pyrazin-2-ylamino]-1,3-dihydro-indol-2-one] the same measures were < 0.1 µM and 3 to 50 µM.
`CC1(C)C(=O)Nc2cc(Nc3nc4c(N5CCC[C@@H](N)C5)nccn4n3)ccc21` [C94, 6-[8-((R)-3-amino-piperidin-1-yl)-[1,2,4]triazolo[1,5-a]pyrazin-2-ylamino]-3,3-dimethyl-1,3-dihydro-indol-2-one]: the IC50 against SYK was < 0.1 µM; at GCN2, 3 to 50 µM.
`CN(c1nccn2nc(Nc3ccc4c(c3)NC(=O)C4(C)C)nc12)C1CCCNC1` (stereo not drawn) [C88, 3,3-dimethyl-6-[8-(methyl-piperidin-3-yl-amino)-[1,2,4]triazolo[1,5-a]pyrazin-2-ylamino]-1,3-dihydro-indol-2-one]: the IC50 on SYK fell in the range of 0.3 to 3 µM; against GCN2 it was 3 to 50 µM.
As to `COc1cc(Nc2nc3c(N4CCNC(=O)C4)nccn3n2)cc(OC)c1` [C43, 4-[2-(3,5-dimethoxy-phenylamino)-[1,2,4]triazolo[1,5-a]pyrazin-8-yl]-piperazin-2-one], the IC50 on SYK fell in the range of 0.3 to 3 µM; against GCN2, 3 to 50 µM.
For `Cn1cc(-c2nccn3nc(Nc4ccc5c(c4)NC(=O)C5(C)O)nc23)cn1` (stereo not drawn) [C71, 3-hydroxy-3-methyl-6-[8-(1-methyl-1H-pyrazol-4-yl)-[1,2,4]triazolo[1,5-a]pyrazin-2-ylamino]-1,3-dihydro-indol-2-one] the same measures were 0.1 to 0.3 µM and 0.3 to 3 µM.
In the case of `CC1(C)C(=O)Nc2cc(Nc3nc4c(N5CCC6(CC(=O)NC6=O)C5)nccn4n3)ccc21` (stereo not drawn) [C95, 7-[2-(3,3-dimethyl-2-oxo-2,3-dihydro-1H-indol-6-ylamino)-[1,2,4]triazolo[1,5-a]pyrazin-8-yl]-2,7-diaza-spiro[4.4]nonane-1,3-dione], the 50% inhibitory concentration (IC50) against SYK is < 0.1 µM; at GCN2, 3 to 50 µM.
Take `CS(=O)(=O)c1ccc(-c2nccn3nc(Nc4ccc(N5CCOCC5)cc4)nc23)cc1` [C38, 8-(4-methylsulfonylphenyl)-N-(4-morpholinophenyl)-[1,2,4]triazolo[1,5-a]pyrazin-2-amine]: the values for the IC50 against SYK and on GCN2 were 0.1 to 0.3 µM and 0.3 to 3 µM, respectively.
In the case of `Cc1nc2cc(Nc3nc4c(-c5ccc(S(C)(=O)=O)cc5)nccn4n3)ccc2[nH]1` [C58, [8-(4-methanesulfonyl-phenyl)-[1,2,4]triazolo[1,5-a]pyrazin-2-yl]-(2-methyl-1H-benzoimidazol-5-yl)-amine], the IC50 against SYK and against GCN2 was 0.3 to 3 µM each time.
Take `CN(c1nccn2nc(Nc3ccc4c(c3)NC(=O)C4(C)C)nc12)C1CCOCC1` [C101, 3,3-dimethyl-6-{8-[methyl-(tetrahydro-pyran-4-yl)-amino]-[1,2,4]triazolo[1,5-a]pyrazin-2-ylamino}-1,3-dihydro-indol-2-one]: the values for the IC50 against SYK and against GCN2 were 0.1 to 0.3 µM and 3 to 50 µM, respectively.
On to `Cn1cc(-c2nccn3nc(Nc4ccc5c(c4)NC(=O)C(C)(C)O5)nc23)cn1` [C80, 2,2-dimethyl-6-[8-(1-methyl-1H-pyrazol-4-yl)-[1,2,4]triazolo[1,5-a]pyrazin-2-ylamino]-4H-benzo[1,4]oxazin-3-one], for which the IC50 is 0.1 to 0.3 µM on SYK and 3 to 50 µM against GCN2.
Take `COc1cc(Nc2nc3c(N4CCC(N)CC4)nccn3n2)cc(OC)c1` [C50, [8-(4-amino-piperidin-1-yl)-[1,2,4]triazolo[1,5-a]pyrazin-2-yl]-(3,5-dimethoxy-phenyl)-amine]: the IC50 on SYK lay within 0.3 to 3 µM; against GCN2, 3 to 50 µM.
`CC1(C)C(=O)Nc2cc(Nc3nc4c(N5CCC(F)(F)C5)nccn4n3)ccc21` [C105, 6-[8-(3,3-difluoro-pyrrolidin-1-yl)-[1,2,4]triazolo[1,5-a]pyrazin-2-ylamino]-3,3-dimethyl-1,3-dihydro-indol-2-one]: the results for the IC50 against SYK and at GCN2 were < 0.1 µM and 3 to 50 µM, respectively.
With `CC1(C)C(=O)Nc2cc(Nc3nc4c(N5CC(O)C5)nccn4n3)ccc21` [C74, 6-[8-(3-hydroxy-azetidin-1-yl)-[1,2,4]triazolo[1,5-a]pyrazin-2-ylamino]-3,3-dimethyl-1,3-dihydro-indol-2-one], the IC50 is 0.1 to 0.3 µM against SYK and 3 to 50 µM against GCN2.
Regarding `CC1(C)OC(=O)Nc2cc(Nc3nc4c(N5CCC6(C5)NC(=O)NC6=O)nccn4n3)ccc21` (stereo not drawn) [C118, 7-[2-(4,4-dimethyl-2-oxo-1,4-dihydro-2H-benzo[d][1,3]oxazin-7-ylamino)-[1,2,4]triazolo[1,5-a]pyrazin-8-yl]-1,3,7-triaza-spiro[4.4]nonane-2,4-dione], the half-inhibitory concentration (IC50) was < 0.1 µM at SYK and 3 to 50 µM against GCN2.
Consider `CC1(C)C(=O)Nc2cc(Nc3nc4c(N5CCC6(C5)NC(=O)NC6=O)nccn4n3)ccc21` (stereo not drawn) [C108, 7-[2-(3,3-dimethyl-2-oxo-2,3-dihydro-1H-indol-6-ylamino)-[1,2,4]triazolo[1,5-a]pyrazin-8-yl]-1,3,7-triaza-spiro[4.4]nonane-2,4-dione], for which the IC50 is < 0.1 µM on SYK and 3 to 50 µM against GCN2.
On to `Cn1cc(-c2nccn3nc(Nc4ccc5cc[nH]c5c4)nc23)cn1` [C111], for which the IC50 against SYK is 0.1 to 0.3 µM; on GCN2, 0.3 to 3 µM.
With `Cn1cc(-c2nccn3nc(Nc4ccc(C5(C#N)CC5)cc4)nc23)cn1` [C63, 1-{4-[8-(1-methyl-1H-pyrazol-4-yl)-[1,2,4]triazolo[1,5-a]pyrazin-2-ylamino]-phenyl}-cyclopropanecarbonitrile], the figures for the IC50 at SYK and against GCN2 were 0.1 to 0.3 µM and 0.3 to 3 µM, respectively.
For `N#CC1(c2ccc(Nc3nc4c(-c5cn[nH]c5)nccn4n3)cc2)CC1` [C65, 1-{4-[8-(1H-pyrazol-4-yl)-[1,2,4]triazolo[1,5-a]pyrazin-2-ylamino]-phenyl}-cyclopropanecarbonitrile] the same measures were 0.1 to 0.3 µM and 3 to 50 µM.

As a reminder, the IC50 is the concentration needed to halve the response being measured. The low end stands for greater potency, the high end for weaker potency.
